≈ marks a conversion by molar mass, not a printed value. Read-outs that look alike come from different tables or passages of the source. Peptide text beside a SMILES is read from it. * marks the point of attachment. X3 = O=C(CCCCCCCCCC[P+](c1ccccc1)(c1ccccc1)c1ccccc1)* A value given as a limit tells only on which side of the number the result lay.

The test system of one assay is 70S E. coli ribosome. As to the kind of experiment: Competition-binding assay, displacement of BODIPY-Bac(1–10), fluorescence anisotropy. The note with it: CI (α = 0.05), read-out: apparent dissociation constant (KD). The protocol:
70S ribosomes were isolated from E. coli MRE600 cells according to a published procedure. The binding of BODIPY-Bac(1–10) to 70S E. coli ribosomes was performed according to the following procedure. BODIPY-Bac(1–10) (16 nM) was incubated with ribosomes (from 0.5 nM to 2000 nM) for 2 h at 26 °C in a buffer containing 20 mM of HEPES-KOH (pH 7.5), 50 mM of NH4Cl, 10 mM of Mg(CH3COO)2, 4 mM of β-mercaptoethanol, and 0.05% Tween-20. The binding affinities of peptides 1 and 2, their TPP analogs 3–5, as well as the control compounds for the E. coli ribosome were analyzed via a competition-binding assay using fluorescently labeled BODIPY-Bac(1–10) or BODIPY-ERY, as described before in [38, 54]. The fluorescent compound (16 nM) was mixed with ribosomes (84 nM for BODIPY-Bac(1–10) and 46 nM for BODIPY-ERY) in the buffer. Solutions of the tested compounds were added to the obtained complexes to final concentrations ranging from 0.01 to 100 µM. The mixtures were incubated for 2 h at 26 °C, and then the values of fluorescence anisotropy were measured with a VICTOR X5 Multilabel Plate Reader (PerkinElmer, Waltham, MA, USA) using a 384-well plate. The excitation wavelength was 485 nm, and the emission wavelength was 535 nm. From the data obtained, apparent dissociation constants were calculated.

Another assay concerns A549. The experiment in a line: cells. The conditions noted are these: 72 h. Here is the method:
(§1) The cytotoxicity of the substances under study was tested using the MTT (3-(4,5-dimethylthiazol-2-yl)-2,5-diphenyltetrazolium bromide) assay with some modifications. The detailed procedure for the MTT assay is given in the Supplementary Materials (Section S5).
(§2) Two thousand five hundred cells per well for the MCF7, HEK293T, and A549 cell lines or 4000 cells per well for the VA13 cell line were plated in 135 µL of DMEM-F12 media with 10% FBS (both Gibco, Waltham, MA, USA) in a 96-well plate and were incubated in a 5% CO2 incubator for the first 16 h, without treatment. Then 15 µL of media-DMSO solutions of the tested substances were added to the cells (the final DMSO concentrations in the media were 1% or less), and the cells were treated for 72 h with 25 nM–50 µM (eight dilutions) of the tested substances (triplicate each). Serial dilutions of DMSO and doxorubicin were used as controls. The MTT reagent (Paneco LLC, Moscow, Russia) was then added to the cells at a final concentration of 0.5 g/L (10× stock solution in PBS was used) and incubated for 2.5 h at 37 °C in the incubator under an atmosphere of 5%
(§3) CO2. The MTT solution was then discarded, and 140 µL of DMSO (PharmaMed LLC, Krasnodar, Russia) was added. The plates were swayed on a shaker (60 rpm) to dissolve the formazan. The absorbance was measured using the VICTOR X5 Multilabel Plate Reader (PerkinElmer, Wa l th a m, MA, USA) at a wavelength of 565 nm (in order to measure formazan concentration). The resu l ts were used to construct a dose-response graph and to estimate IC50 values.
(§4) Figure S11.The dependencies of viability of cells after treatment by tested compounds.
(§5) (1 picture or pasted object on this page, not shown here)

Assay [1] has as its system bacterial translation (E. coli S30 extract). The experiment in a line: In vitro translation inhibition of firefly luciferase mRNA, E. coli S30 extract. The format is biochemical. The conditions noted are these: 30 µM. The protocol:
Briefly, in vitro-transcribed firefly luciferase mRNA (fluc) was translated using the E. coli S30 Extract System for Linear Templates (Promega, Madison, WI, USA). Reaction mixtures (with a 5 μL total volume) supplemented with 0.1 mM of a mixture of all canonical amino acids, 4 U of RiboLock RNase Inhibitor (Thermo Fisher Scientific, Waltham, MA, USA), and 0.1 mM of D-luciferin (Sigma-Aldrich, Burlington, MA, USA) were pre-incubated at RT for 5 min after the addition of the tested compounds at a final concentration of 30 µM. Then, 50 ng of the mRNA was added to each reaction tube, and the mixtures were immediately subjected to continuous chemiluminescence measurements using the VICTOR X5 Multilabel Plate Reader (PerkinElmer, Waltham, MA, USA) at 37 °C for 30 min. The maximal rates of the firefly luciferase (Fluc) accumulation were calculated using the OriginPro 7.5 software. The values were normalized to a positive control (0.3% DMSO, assigned a value of 100%).

A further assay concerns B. subtilis. The experiment in a line: Membrane potential with fluorescent probe diS-C3-(5). In kind it is cell-based. The conditions noted are these: 2.5 µM, diS-C3-(5) fluorescence. Here is the method:
The membrane potential of B. subtilis was assessed by measuring the fluorescence emitted by the potential-dependent probe, diS-C3-(5). Bacterial cells derived from the overnight culture of B. subtilis were inoculated into a fresh LB medium and allowed to grow for 24 h until reaching an optical density of 0.8 at 600 nm. Subsequently, the bacteria were subjected to a 20-fold dilution in a buffer comprising 100 mM of KCl and 10 mM of Tris, adjusted to a pH of 7.4. Fluorescence measurements were conducted at 670 nm (with excitation at 630 nm) using a Fluorat-02-Panorama fluorimeter manufactured by Lumex Instruments in St. Petersburg, Russia.

A further assay has as its system E. coli BW25113. As to the kind of experiment: microbe, parasite or virus in culture. The note with it: E. coli BW25113, 37 °C, 18 h. In kind it is cell-based. The protocol:
(§6) The MIC values for Bac(1–10), Bac(1–10, R/Y), Bac(1–10, R/Y)-Cn-TPP, TPP-C10-Bac(1–10, R/Y), and Onc112 were determined via LB broth microdilution, as recommended by CLSI in the Methods for Dilution Antimicrobial Susceptibility Tests for Bacteria that Grow Aerobically, Approved Standard, 9th ed., CLSI document M07-A9, using in-house-prepared panels. The compounds were diluted in a 96-well microtiter plate to final concentrations ranging from 0.1 to 100 µM in a 200 µL aliquot of the bacterial suspension, followed by incubation at 37 °C for 18 h. The cell concentration was estimated according to the absorbance (A600). The measurements were performed with a VICTOR X5 Multilabel Plate Reader (PerkinElmer, Waltham, MA, USA). The following bacterial strains were used: E. coli BW25113, E. coli JW0368 ΔsbmA, B. subtilis 168, and B. subtilis CFR [39].

Assay [2] has as its system B. subtilis CFR. As to the kind of experiment: microbe, parasite or virus in culture. The conditions noted are these: CFR, 18 h. The format is cell-based. Here is the method: as §6
The test system of a further assay is E. coli JW0368 ΔsbmA. As to the kind of experiment: microbe, parasite or virus in culture. In kind it is cell-based. Here is the method: as §6
Assay [3] relates to B. subtilis 168. As to the kind of experiment: microbe, parasite or virus in culture. The format is cell-based. The conditions noted are these: B. subtilis 168, 37 °C, 18 h. The protocol: as §6
Another assay has as its system MCF7. As to the kind of experiment: cells. The format is cell-based, human. The conditions noted are these: 72 h. Here is the method: as §1, §2, §3, §4, §5
A further assay concerns HEK293T. As to the kind of experiment: cells. In kind it is cell-based, human. The conditions noted are these: 72 h. Here is the method: as §1, §2, §3, §4, §5
A further assay has as its system VA13. The experiment in a line: cells. In kind it is cell-based, human. The conditions noted are these: 72 h. Here is the method: as §1, §2, §3, §4, §5
Assay [4] concerns E. coli JW5503 (∆tolC) (KanS) pDualrep2. The experiment in a line: pDualrep2 double-reporter agar plate test. The format is cell-based. The note with it: 1 µL of 10 mM solution on agar plate. Here is the method:
The “pDualrep2” system was used to evaluate the mechanism of the antimicrobial action of the synthesized compounds. This system is based on the hypersensitive strain E. coli JW5503 (∆tolC) (KanS) transformed with the “pDualrep2” plasmid, which allows one to sort out suppressors of protein synthesis or SOS response inducers. Briefly, 1 µL of 10 mM water solutions of Bac(1–10), Bac(1–10, R/Y), Bac(1–10, R/Y)-Cn-TPP, TPP-C10-Bac(1–10, R/Y), and Onc112 were applied onto the agar plate that already contained a layer of the reporter strain E. coli JW5503 (∆tolC) (KanS) pDualrep2, and then the plate was incubated overnight at 37 °C. The agar plate was scanned using the ChemiDoc^TM Imaging System (Bio-Rad Laboratories, Hercules, CA, USA), containing two channels, “Cy3-blot” (553/574 nm; green pseudocolor) for Turbo Red Fluorescent Protein (TurboRFP) detection and “Cy5-blot” (588/633 nm; red pseudocolor) for Katushka2S fluorescence. […] Levofloxacin (LEV; 50 μg/mL, 1 μL) and erythromycin (ERY; 5 mg/mL, 1 μL) were utilized as positive controls for DNA and protein synthesis inhibitors, respectively.

Assay [5] concerns B. subtilis 168. Details: method as in PMID 33922611. The note with it: cited from earlier work.
The test system of assay [6] is B. subtilis CFR. The conditions noted are these: cited from earlier work.

Usually IC50 stands for the concentration that inhibits the measured activity by half. For `CC[C@H](C)[C@H](NC(=O)[C@H](CCCNC(=N)N)NC(=O)[C@H](CCCNC(=N)N)NC(=O)CCCCCCCCCC[P+](c1ccccc1)(c1ccccc1)c1ccccc1)C(=O)N[C@@H](CCCNC(=N)N)C(=O)N1CCC[C@H]1C(=O)N[C@@H](CCCNC(=N)N)C(=O)N1CCC[C@H]1C(=O)N1CCC[C@H]1C(=O)N[C@@H](Cc1ccc(O)cc1)C(=O)N[C@@H](CC(C)C)C(=O)O` [Compound 5, TPP-C10-Bac(1–10, R/Y)] (X3-RRIRPRPPYL-OH), the Kd in the assay on 70S E. coli ribosome came out at 0.16 ± 0.02 µM. The IC50 is greater than 50 µM with A549, greater than 20 µM in the assay with MCF7, 36 ± 4 µM in the assay on HEK293T and greater than 50 µM in the assay with VA13. Besides, the “inhibition of bacterial translation of firefly luciferase (Fluc) mRNA” value in [1] is on record as “weakly inhibited”. In addition, the “effect on membrane potential of B. subtilis” value with B. subtilis is “decrease in the membrane potential, to a somewhat lesser extent”. The MIC against E. coli BW25113 is 5.3 µM; in the assay on B. subtilis CFR [2], 12.5 µM; against E. coli JW0368 ΔsbmA (E. coli ∆sbmA, 37 °C, 18 h), 5.3 µM; in the assay on B. subtilis 168 [3], 12.5 µM. The “comparison of MIC values, E. coli ΔsbmA versus wild type” value in the assay with E. coli JW0368 ΔsbmA (MIC values of Table 1) is reported as “the same”. For the same compound, the “inhibitory effect on growth of bacterial cells” value in assay [4] is on record as “demonstrated an inhibitory effect on the growth of bacterial cells”.
As to `O=C(N[C@H](CO)[C@H](O)c1ccc([N+](=O)[O-])cc1)C(Cl)Cl` [Chloramphenicol], the MIC with B. subtilis 168 [5] was 12 µM (≈ 3.88 µg/mL); in the assay with B. subtilis CFR [6] it was 90 µM (≈ 29.1 µg/mL).

(Values after PMC10818380, “Triphenylphosphonium Analogs of Short Peptide Related to Bactenecin 7 and Oncocin 112 as Antimicrobial Agents” (Pharmaceutics, 2024).)
